Numbers after ± are expanded uncertainties.
How the values were obtained:
[1] = 101 kPa, Liquid; for mass density: Pycnometric method
[2] = xn = mol fraction of the nth substance listed; conditions: 101 kPa, Liquid, x2 = 0

| SMILES | viscosity ([1]; 293.15 K) [mPa·s] | mass density ([1]; 293.15 K) [kg/m3] | viscosity ([1]; 298.15 K) [mPa·s] | mass density ([1]; 298.15 K) [kg/m3] | viscosity ([1]; 303.15 K) [mPa·s] | mass density ([1]; 303.15 K) [kg/m3] | mass density ([1]; 308.15 K) [kg/m3] | viscosity ([1]; 313.15 K) [mPa·s] | mass density ([1]; 313.15 K) [kg/m3] | viscosity ([1]; 323.15 K) [mPa·s] | mass density ([1]; 323.15 K) [kg/m3] | viscosity ([1]; 333.15 K) [mPa·s] | mass density ([1]; 333.15 K) [kg/m3] | viscosity ([2]; 293.15 K) [mPa·s] | viscosity ([2]; 303.15 K) [mPa·s] | viscosity ([2]; 313.15 K) [mPa·s] | viscosity ([2]; 323.15 K) [mPa·s] | mass density ([2]; 333.15 K, Pycnometric method) [kg/m3] | viscosity ([2]; 333.15 K) [mPa·s] |
| --- | --- | --- | --- | --- | --- | --- | --- | --- | --- | --- | --- | --- | --- | --- | --- | --- | --- | --- | --- |
| CCOCCOCCOCCO [2-(2-(2-ethoxyethoxy)ethoxy)ethanol] | 7.796 ± 0.16 | 1020.6 ± 2.1 | 6.739 ± 0.14 | 1016.3 ± 2.1 | 5.657 ± 0.12 | 1011.9 ± 2.1 | 1008.1 ± 2.1 | 4.185 ± 0.094 | 1003.9 ± 2.1 | 3.326 ± 0.076 | 995.5 ± 2 | 2.627 ± 0.061 | 986.7 ± 2 | – | – | – | – | – | – |
| O [water] + CCOCCOCCOCCO | – | – | – | – | – | – | – | – | – | – | – | – | – | 1.005 ± 0.025 | 0.8007 ± 0.02 | 0.656 ± 0.017 | 0.5494 ± 0.015 | 983.2 ± 2 | 0.4688 ± 0.013 |
